The values that follow come from patent publication US20050245563A1 (Millennium Pharmaceuticals, Inc., priority 2003, published 2005).

The term IC50 denotes the concentration that gives 50% inhibition. Higher therefore signals weaker potency in that assay.

This test deals with T1, human Chk1 (GST-Chk1) (Homo sapiens, UniProt O14757).
T1 construct: made in house; host or cells: insect cells (baculovirus, Bac-to-Bac)
T1 sequence (O14757 1-476): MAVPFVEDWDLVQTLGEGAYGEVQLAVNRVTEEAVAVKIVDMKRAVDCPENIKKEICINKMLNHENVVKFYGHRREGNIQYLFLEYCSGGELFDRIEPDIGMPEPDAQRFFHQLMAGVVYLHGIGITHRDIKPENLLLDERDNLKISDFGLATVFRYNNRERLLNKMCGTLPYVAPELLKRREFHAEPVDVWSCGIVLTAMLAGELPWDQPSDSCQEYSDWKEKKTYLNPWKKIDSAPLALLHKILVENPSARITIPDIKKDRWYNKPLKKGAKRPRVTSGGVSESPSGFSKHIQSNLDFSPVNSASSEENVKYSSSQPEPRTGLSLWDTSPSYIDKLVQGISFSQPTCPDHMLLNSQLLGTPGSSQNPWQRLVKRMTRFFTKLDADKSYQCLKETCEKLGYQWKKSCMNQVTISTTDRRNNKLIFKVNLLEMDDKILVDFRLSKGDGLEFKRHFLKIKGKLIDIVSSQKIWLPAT
Nature of the test: Chk1 DELFIA kinase assay (2 nM GST-Chk1, 600 μM ATP). The class given is biochemical. The conditions noted are these: Biotin-GLYRSPSMPEN-amide substrate. The procedure, abridged:
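Enzyme is N-terminal GST-Chk1 from baculovirus/insect cells, assayed with 1 μM biotin-GLYRSPSMPEN-amide in pH 7.5 Tris buffer, 4% DMSO and 10 mM MgCl2 for 50 min at room temperature. EDTA-stopped reactions were captured on NeutrAvidin. Phospho-peptide was detected by anti-phospho-Ser216-Cdc25c antibody with europium-labeled secondary and time-resolved fluorescence.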

The structures appear in SMILES notation. Counter-ions that a name gives are not always drawn.

For `CCc1ccc2c(c1)c1n[nH]c(C)c1c(=O)n2CCCNC` [Example 300, 8-Ethyl-3-methyl-5-(3-methylamino-propyl)-2,5-dihydro-pyrazolo[4,3-c]quinolin-4-one], the IC50 is less than 1000 nM. Under `Cc1[nH]nc2c1c(=O)n(CCCN)c1ccc(CCCO)cc21` [Example 301, 5-(3-Amino-propyl)-8-(3-hydroxy-propyl)-3-methyl 2,5-dihydro-pyrazolo[4,3-c]quinolin-4-one] stands less than 1000 nM; under `CCCc1ccc2c(c1)c1n[nH]c(C)c1c(=O)n2CCCN` [Example 302, 5-(3-Amino-propyl)-3-methyl-8-propyl-2,5-dihydro-pyrazolo[4,3-c]quinolin4-one], less than 1000 nM. `C#Cc1ccc2c(c1)c1n[nH]c(C)c1c(=O)n2C[C@H]1CCCNC1` [Example 303, 8-Ethynyl-3-methyl-5-piperidin-3-ylmethyl-2,5-dihydro-pyrazolo[4,3-c]quinolin-4-one]: the IC50 is less than 1000 nM. `C#Cc1ccc2c(c1)c1n[nH]c(CC)c1c(=O)n2CCCNC` [Example 304, 8-Ethynyl-3-ethyl-5-(3-methylamino-propyl)-2,5-dihydro-pyrazolo[4,3-c]quinolin-4-one]: the IC50 is less than 1000 nM.

Turning to `COCCc1[nH]nc2c1c(=O)n(CCCN)c1ccc(C#CCN3CCCC3)cc21` [Example 305, 5-(3-Amino-propyl)-3-(2-methoxy-ethyl)-8-(3-pyrrolidin-1-yl-prop-1-ynyl)-2,5-dihydro-pyrazolo[4,3-c]quinolin-4-one], the IC50 is less than 1000 nM. To `Cc1[nH]nc2c1c(=O)n(CCCN)c1ccc(-c3ccc(C#N)cc3)cc21` [Example 306, 4-[5-(3-Amino-propyl)-3-methyl-4-oxo-4,5-dihydro-2H-pyrazolo[4,3-c]quinolin-8-yl]-benzonitrile] belongs less than 1000 nM; to `Cc1[nH]nc2c1c(=O)n(CCCN)c1ccc(-c3ccc(N(C)C)cc3)cc21` [Example 307, 5-(3-Amino-propyl)-8-(4-dimethylamino-phenyl)-3-methyl-2,5-dihydro-pyrazolo [4,3-c]quinolin-4-one], less than 1000 nM.

The compound `Cc1[nH]nc2c1c(=O)n(CCCN)c1ccc(-c3cccnc3)cc21` [Example 308, 5-(3-Amino-propyl)-3-methyl-8-pyridin-3-yl-2,5-dihydro-pyrazolo[4,3-c]quinolin-4-one] had an IC50 of less than 1000 nM.

In turn, `Cc1[nH]nc2c1c(=O)n(CCCN)c1ccc(-c3ccoc3)cc21` [Example 309, 5-(3-Amino-propyl)-8-furan-3-yl-3-methyl-2,5-dihydro-pyrazolo[4,3-c]quinolin-4-one] came in with an IC50 of less than 1000 nM. `Cc1[nH]nc2c1c(=O)n(CCCN)c1ccc(N3CCCC3)cc21` [Example 310, 5-(3-Amino-propyl)-3-methyl-8-pyrrolidin-1-yl-2,5-dihydro-pyrazolo[4,3-c]quinolin-4-one] registered an IC50 of less than 1000 nM. To `CCc1[nH]nc2c1c(=O)n(CCCN)c1ccc(Cl)cc21` [Example 311, 5-(3-Amino-propyl)-8-chloro-3-ethyl-2,5-dihydro-pyrazolo[4,3-c]quinolin-4-one hydrochloride] belongs less than 1000 nM; to `CCOCCc1[nH]nc2c1c(=O)n(CCCN)c1ccc(Cl)cc21` [Example 320, 5-(3-Amino-propyl)-8-chloro-3-(2-ethoxy-ethyl)-2,5-dihydro-pyrazolo[4,3-c]quinolin-4-one], less than 1000 nM; to `CCCOCCc1[nH]nc2c1c(=O)n(CCCN)c1ccc(Cl)cc21` [Example 321, 5-(3-Amino-propyl)-8-chloro-3-(2-propoxy-ethyl)-2,5-dihydro-pyrazolo[4,3-c]quinolin-4-one], less than 1000 nM. The compound `CCCCOCCc1[nH]nc2c1c(=O)n(CCCN)c1ccc(Cl)cc21` [Example 322, 5-(3-Amino-propyl)-3-(2-butoxy-ethyl)-8-chloro-2,5-dihydro-pyrazolo[4,3-c]quinolin-4-one] displayed an IC50 of less than 1000 nM. Consider `NCCCn1c(=O)c2c(C3CCOC3)[nH]nc2c2cc(Cl)ccc21` (centres unmarked) [Example 327, 5-(3-Amino-propyl)-8-chloro-3-(tetrahydro-furan-3-yl)-2,5-dihydro-pyrazolo[4,3-c]quinolin-4-one], for which the half-maximal inhibitory concentration (IC50) is less than 1000 nM. In turn, `NCCCn1c(=O)c2c(CCO)[nH]nc2c2cc(C#CCN3CCCC3)ccc21` [Example 328, 5-(3-Amino-propyl)-3-(2-hydroxy-ethyl)-8-(3-pyrrolidin-1-yl-prop-1-ynyl)-2,5-dihydro-pyrazolo [4,3-c]quinolin-4-one] returned an IC50 of less than 1000 nM. To `CCc1[nH]nc2c1c(=O)n(CCCN)c1ccc(C#CCN3CCCC3)cc21` [Example 329, 5-(3-Amino-propyl)-3-ethyl-8-(3-pyrrolidin-1-yl-prop-1-ynyl)-2,5-dihydro-pyrazolo[4,3-c]quinolin-4-one] belongs less than 1000 nM; to `CCc1[nH]nc2c1c(=O)n(CCCN)c1ccc(CCCN3CCCC3)cc21` [Example 330, 5-(3-Amino-propyl)-3-ethyl-8-(3-pyrrolidin-1-yl-propyl)-2,5-dihydro-pyrazolo[4,3-c]quinolin-4-one], less than 1000 nM.

Compound `CCc1[nH]nc2c1c(=O)n(CCCNC)c1ccc(Cl)cc21` [Example 331, 8-Chloro-3-ethyl-5-(3-methylamino-propyl)-2,5-dihydro-pyrazolo[4,3-c]quinolin4-one] returned a concentration for half-maximal inhibition (IC50) of less than 1000 nM.

As to `Cc1[nH]nc2c1c(=O)n(CCCNC(=O)c1ccc(Cl)cc1)c1ccc(C#CCN3CCCC3)cc21` [Example 332, 4-Chloro-N-{3-[3-methyl-4-oxo-8-(3-pyrrolidin-1-yl-prop-1-ynyl)-2,4-dihydro-pyrazolo[4,3-c]quinolin-5-yl]-propyl}-benzamide], the IC50 is less than 1000 nM. Under `Cc1[nH]nc2c1c(=O)n(CCCNC(=O)c1ccc(Cl)cc1)c1ccc(CCCN3CCCC3)cc21` [Example 333] stands less than 1000 nM.

For the compound `Cc1[nH]nc2c1c(=O)n(CCCN)c1cc(C(=O)NCCN(C)C)ccc21` [Example 335, 5-(3-Amino-propyl)-3-methyl-4-oxo-4,5-dihydro-2H-pyrazolo[4,3-c]quinoline-7-carboxylic acid (2-dimethylamino-ethyl)-amide], the IC50 is less than 1000 nM. Under `Cc1[nH]nc2c1c(=O)n(CCCN)c1cc(C(=O)NCCN3CCCC3)ccc21` [Example 336, 5-(3-Amino-propyl)-3-methyl-4-oxo-4,5-dihydro-2H-pyrazolo[4,3-c]quinolin-7-carboxylic acid (2-pyrrolidin-1-yl-ethyl)-amide] stands less than 1000 nM; under `Cc1[nH]nc2c1c(=O)n(CCCN)c1cc(C(=O)NCCCN(C)C)ccc21` [Example 337], less than 1000 nM; under `Cc1[nH]nc2c1c(=O)n(CCCN)c1cc(C(=O)NCCCCN(C)C)ccc21` [Example 338], less than 1000 nM. To `Cc1[nH]nc2c1c(=O)n(CCCN)c1cc(I)ccc21` [Example 339, 5-(3-Aminopropyl)-7-iodo-3-methyl-2,5-dihydro-pyrazolo[4,3-c]quinolin4-one] belongs less than 1000 nM.

`Cc1[nH]nc2c1c(=O)n(CCCN)c1cc(C#CCN3CCCC3)ccc21` [Example 340, 5-(3-Amino-propyl)-3-methyl-7-(3-pyrrolidin-1-yl-prop-1-ynyl)-2,5-dihydro-pyrazolo [4,3-c]quinolin-4-one] showed an IC50 of less than 1000 nM. Under `Cc1[nH]nc2c1c(=O)n(CCCN)c1cc(CCCN3CCCC3)ccc21` [Example 341, 5-(3-Amino-propyl)-3-methyl-7-(3-pyrrolidin-1-yl-propyl)-2,5-dihydro-pyrazolo[4,3-c]quinolin-4-one] stands less than 1000 nM.

On to `Cc1[nH]nc2c1c(=O)n(C)c1c(C#CCN)cc(Cl)cc21` [Example 342, 6-(3-amino-prop-1-ynyl)-8-chloro-3,5-dimethyl-2,5-dihydro-pyrazolo[4,3-c]quinolin-4-one], for which the IC50 was less than 1000 nM. To `Cc1[nH]nc2c1c(=O)n(CCCN)c1ccc(C(=O)NCCN(C)C)cc21` [Example 352, 5-(3-Amino-propyl)-3-methyl-4-oxo-4,5-dihydro-2H-pyrazolo[4,3-c]quinoline-8-carboxylic acid (2-dimethylamino-ethyl)-amide] belongs less than 1000 nM. Under `Cc1[nH]nc2c1c(=O)n(CCCN)c1ccc(CCc3cccnc3)cc21` [Example 353, 5-(3-Amino-propyl)-3-methyl-8-(2-pyridin-3-yl-ethyl)-2,5-dihydro-pyrazolo[4,3-c]quinolin-4-one] stands less than 1000 nM; under `COCCc1[nH]nc2c1c(=O)n(CCCN)c1ccc(C)cc21` [Example 354, 5-(3-Amino-propyl)-3-(2-methoxy-ethyl)-8-methyl-2,5-dihydro-pyrazolo[4,3-c]quinolin-4-one], less than 1000 nM. Compound `NCCCn1c(=O)c2c(CCOCc3ccccc3)[nH]nc2c2cc(Cl)ccc21` [Example 362, 5-(3-Amino-propyl)-3-(2-benzyloxy-ethyl)-8-chloro-2,5-dihydro-pyrazolo[4,3-c]quinolin-4-one] displayed an IC50 of less than 1000 nM. To `CCc1ccc2c(c1)c1n[nH]c(CCO)c1c(=O)n2CCCO` [Example 363, 8-Ethyl-3-(2-hydroxy-ethyl)-5-(3-hydroxy-propyl)-2,5-dihydro-pyrazolo[4,3-c]quinolin-4-one] belongs less than 1000 nM.
